Assay results as given in patent publication US20260055051A1, “Compound with anti-tumor activity, preparation method therefor, and use thereof” (Ocean University of China, priority 2022, published 2026).

Legend:
HCT116 cells = experiment: HCT116 cell-BALB/c nude mouse subcutaneous tumor transplantation experiment; assay type: in vivo, BALB/c nude mice; conditions: HCT116 model; test compound 0.5 mg/mL at 10 mL/kg tail vein, 15 times; 5-fu 20 mg/kg, 6 times
Method: (§1) BALB/c nude mice were subcutaneously inoculated with A549, HCT116 and HT-29 cells to establish tumor transplantation models. • Solvent Control Group: 2% DMSO+normal saline+sodium carbonate (the molar ratio of the compound to sodium carbonate is 1:2) • 5-fluorouracil control group: 5-fluorouracil injection (20 mg/kg);
(§2) Test compound group: 1 mg of a test compound was fully dissolved in […] DMSO, and then diluted with normal saline to 0.5 mg/mL. 2 mL was used each time, freshly prepared before use on the same day.
(§3) Eight mice were in each group.
(§4) The solvent control group and the test compound group were administered at a dose of 10 mL/kg via tail vein injection (the dose for each administration was calculated based on the body weight on that day), 5 times a week, for a total of 15 times. The animals were euthanized after the last administration.
(§5) The 5-fluorouracil control group was administered twice a week for a total of 6 times.
(§6) The body weight and tumor diameter were measured twice a week during the administration period. Tumors and the spleen were removed and weighed after euthanasia. The tumor volume, relative tumor volume (RTV), relative tumor growth rate (T/C %), tumor volume inhibition rate (IRTV%), and tumor weight inhibition rate (IRTW%) were calculated. Data for animals that died accidentally were only listed but excluded from statistical analysis.

[1] = test system: human lung cancer cell line A549; experiment: In vitro tumor cell proliferation inhibition assay (SRB method), A549; assay type: cell-based; conditions: 72 hours; for IC50 / inhibition at 10 µM: SRB; for IC50: mean of triplicate experiments, read-out: IC50 against A549; for inhibition at 10 µM: test compounds 10 μM
Method: (§7) Sulforhodamine B Colorimetric Method (SRB Method) and MTT Colorimetric Method (MTT Method)
(§8) Human lung cancer cell line A549, human liver cancer cell line HepG2, human colon cancer cell line HCT116, human colon cancer cell line HT-29, human leukemia cell line K562, human cervical cancer cell line hela, and human breast cancer cell line MCF-7, all provided by the Shanghai Cell Bank, Chinese Academy of Sciences.
(§9) A549, HepG2, HCT116, HT-29, K562, hela, and MCF-7 cells were cultured respectively in 1640, DMEM, 5A, 5A, 1640, DMEM, and 1640 culture media containing 10 wt % heat-inactivated FBS (fetal bovine serum), 2 mM L-glutamine, 100 U/mL penicillin and […] streptomycin, in a cell incubator at 37° C. and 5 vol % CO2. The medium was replaced every two days. After the A549, HepG2, HCT116, HT-29, hela, and MCF-7 cells were confluent, they were digested with 0.05% (w/v) trypsin-EDTA at 37° C., passaged, and maintained in the logarithmic growth phase suitable for testing. The K562 suspension cells were passaged without digestion, and maintained in the logarithmic growth phase suitable for testing. The A549, HepG2, HCT116, HT-29, K562, hela, and MCF-7 cells in the logarithmic growth phase were inoculated to 96-well plates at 5000, 5000, 5000, 5000, 6000, 5000, 5000 per well, respectively, and cultured at 37° C. for 24 h.
(§10) Then various concentrations of test samples were added. The positive control group was doxorubicin hydrochloride (final concentration was 1 μM), the solvent control group was an equal volume of DMSO, and the blank control group was an equal volume of a culture medium, with 4 replicate wells for each concentration. After the A549, HepG2, HCT116, HT-29, hela, and MCF-7 cells were treated with the test drugs for 72 hours, the cells in each well were fixed with 50% (m/v) cold trichloroacetic acid (TCA) and stained with SRB. Then […] of Tris solution was added, and the OD value at the wavelength of 540 nm was measured using a microplate reader. For K562 cells, after 72 hours of treatment with the test drugs, […] of 5 mg/mL MTT was added, and the cells were incubated at 37° C. for 4 hours. Next, […] of a triplet solution (10% SDS, 5% isobutanol, 12 mM HCl) was added, followed by further incubation for 12 to 20 hours. The OD value at the wavelength of 570 nm was measured using a microplate reader.
(§11) The tumor cell growth inhibition rate was calculated according to the following equation: […]
(§12) in the equation, • OD540 control well is the absorbance of the control group; • OD540 dosing well is the absorbance of the test group.
(§13) IC50 values of the test drugs (calculated by GraphPad Prism 5 software) were the means of the results of triplicate experiments.

[2] = test system: human colon cancer cell line HT-29; experiment: In vitro tumor cell proliferation inhibition assay (SRB method), HT-29; assay type: cell-based; conditions: 72 hours; for IC50: SRB, mean of triplicate experiments, read-out: IC50 against HT-29
Method: as §7, §8, §9, §10, §11, §12, §13

[3] = test system: human cervical cancer cell line hela; experiment: In vitro tumor cell proliferation inhibition assay (SRB method), hela; assay type: cell-based; conditions: 72 hours; for IC50: SRB, mean of triplicate experiments, read-out: IC50 against hela
Method: as §7, §8, §9, §10, §11, §12, §13

A549 cells = experiment: A549 cell-BALB/c nude mouse subcutaneous tumor transplantation experiment; assay type: in vivo, BALB/c nude mice; conditions: A549 model, test compound 0.5 mg/mL at 10 mL/kg tail vein, 15 times, 6 times
Method: as §1, §2, §3, §4, §5, §6

[4] = test system: human leukemia cell line K562; experiment: In vitro tumor cell proliferation inhibition assay (MTT method), K562; assay type: cell-based; conditions: 72 hours; for IC50: mean of triplicate experiments, read-out: IC50 against K562
Method: as §7, §8, §9, §10, §11, §12, §13

[5] = test system: human breast cancer cell line MCF-7; experiment: In vitro tumor cell proliferation inhibition assay (SRB method), MCF-7; assay type: cell-based; conditions: for IC50: MCF7, 72 hours, SRB, mean of triplicate experiments, read-out: IC50 against MCF-7
Method: as §7, §8, §9, §10, §11, §12, §13

[6] = test system: human colon cancer cell line HCT116; experiment: In vitro tumor cell proliferation inhibition assay (SRB method), HCT116; assay type: cell-based; conditions: for IC50: HCT-116, 72 hours, mean of triplicate experiments, read-out: IC50 against HCT116; for IC50 / inhibition at 10 µM: SRB; for inhibition at 10 µM: HCT-116, test compounds 10 μM
Method: as §7, §8, §9, §10, §11, §12, §13

[7] = test system: human liver cancer cell line HepG2; experiment: In vitro tumor cell proliferation inhibition assay (SRB method), HepG2; assay type: cell-based; conditions: 72 hours; for IC50 / inhibition at 10 µM: SRB; for IC50: mean of triplicate experiments, read-out: IC50 against HepG2; for inhibition at 10 µM: test compounds 10 μM
Method: as §7, §8, §9, §10, §11, §12, §13

[8] = test system: A549, HepG2, HCT116, HT-29, K562, hela, and MCF-7 cell lines; experiment: In vitro tumor cell proliferation inhibition assay, summary over all 7 types of cells; assay type: cell-based; conditions: Homo sapiens
Method: as §7, §8, §9, §10, §11, §12, §13

[9] = read-out: Inhibition rate on A549
[10] = 72 hours, read-out: Inhibition rate on HCT116
[11] = read-out: Inhibition rate on HepG2
[12] = upper bound over A549, HepG2, HCT116, HT-29, K562, hela, MCF-7

Row | IC50 [1] [µM] | IC50 [2] [µM] | IC50 [3] [µM] | IC50 [4] [µM] | IC50 [5] [µM] | IC50 [6] [µM] | IC50 [7] [µM] | SMILES | inhibition at 10 µM [1, 9] [%] | inhibition at 10 µM [6, 10] [%] | inhibition at 10 µM [7, 11] [%] | further results
1 | 2.73 | 16.6 | 23.8 | > 50 | 4.6 | 4.77 | 8.31 | C=CC(=O)NCc1c(O)c(O)c(O)c(CNC(=O)C=C)c1C(=O)O [Compound I-1, N-(2,3,4-trihydroxy-5-acrylamidomethyl-6-carboxybenzyl) acrylamide] | 89.3 | 92.3 | 57.5 | inhibitory effect (inhibition rate of average tumor weight, FIG. 6) (HCT116 cells): 35.13%; average tumor volume at the end of the experiment (A549 cells; 5 times a week, 5-fu 20 mg/kg twice a week): 539.48 mm^3; inhibitory effect (inhibition rate of average tumor weight, FIG. 6) (A549 cells; 5-fu 20 mg/kg): 33.25%
2 | 4.84 | > 50 | > 50 | > 50 | > 50 | > 50 | > 50 | CC(=O)NCc1c(O)c(O)c(O)c(CNC(C)=O)c1C(=O)O [Compound I-2, N-(2,3,4-trihydroxy-5-acetamidomethyl-6-carboxybenzyl) acetamide] | 69.9 | 82 | 18.4 | –
3 | 7.4 | 10.7 | 9.3 | 14.5 | 9.73 | 5.12 | 6.04 | Cc1c(O)c(CNC(=O)CCl)cc(CNC(=O)CCl)c1O [Compound I-3, N-(2,4-dihydroxy-3-methyl-5-chloroacetamidomethylbenzyl) chloroacetamide] | 95.9 | 76.5 | 92.3 | IC50 [8, 12]: < 35.5 µM
4 | 6.32 | 9.39 | 5.64 | 6.93 | 3.74 | 5.32 | 4.06 | Cc1c(C)c(CNC(=O)CCl)c(C)c(CNC(=O)CCl)c1O [Compound I-5, N-(2,3,6-trimethyl-4-hydroxy-5-chloroacetamidomethylbenzyl) chloroacetamide] | 89.5 | 97.3 | 95.3 | IC50 [8, 12]: < 35.5 µM; IC50 ([8]; upper bound over all 7 types of cells, compound I-5): < 9.4 µM
5 | – | – | – | – | – | – | – | C=CC(=O)NCc1c(C(=O)OC)cc(O)c(O)c1O [Compound I-8, N-(2,3,4-trihydroxy-6-carbomethoxy-benzyl) acrylamide] | 28.5 | 30.4 | 54.8 | –
6 | – | – | – | – | – | – | – | C=CC(=O)NCc1c(C(=O)OCCC)cc(O)c(O)c1O [Compound I-9, N-(2,3,4-trihydroxy-6-propoxycarbonyl-benzyl) acrylamide] | 27.5 | 29.1 | 51.1 | –
7 | – | – | – | – | – | – | – | COC(=O)c1cc(O)c(O)c(O)c1CNC(C)=O [Compound I-10, N-(2,3,4-trihydroxy-6-carbomethoxy-benzyl) acetamide] | 38.2 | 34.8 | 55.8 | –
8 | – | – | – | – | – | – | – | CCCOC(=O)c1cc(O)c(O)c(O)c1CNC(C)=O [Compound I-11, N-(2,3,4-trihydroxy-6-propoxycarbonyl-benzyl) acetamide] | 32.5 | 38.2 | 55.5 | –
9 | – | – | – | – | – | – | – | COC(=O)c1cc(O)c(O)c(O)c1CNC(=O)CCl [Compound I-12, N-(2,3,4-trihydroxy-6-carbomethoxy-benzyl) chloroacetamide] | 40.9 | 47.6 | 55.9 | –
10 | – | – | – | – | – | – | – | CCCOC(=O)c1cc(O)c(O)c(O)c1CNC(=O)CCl [Compound I-13, N-(2,3,4-trihydroxy-6-propoxycarbonyl-benzyl) chloroacetamide] | 29.6 | 37.8 | 55 | –
11 | – | – | – | – | – | – | – | COC(=O)c1cc(O)c(O)c(O)c1CNC(=O)c1ccccc1 [Compound I-14, N-(2,3,4-trihydroxy-6-carbomethoxy-benzyl) benzamide] | 37.7 | 34.1 | 1.56 | –
12 | – | – | – | – | – | – | – | C=CC(=O)NCc1cc(CNC(=O)C=C)c(O)c(C(C)=O)c1O [Compound I-15] | 7.05 | 27.7 | 33.5 | –
13 | – | – | – | – | – | – | – | C=CC(=O)NCc1cc(C(C)=O)c(O)c(CNC(=O)C=C)c1O [Compound I-16] | 4.84 | 33.9 | 13 | –
14 | 7.77 | 8.6 | 3.01 | 18 | 2.93 | 2.74 | 3.05 | C=CC(=O)NCc1c(O)c(Br)c(O)c(CNC(=O)C=C)c1C(=O)O [Compound I-17] | 95.8 | 91.5 | 90.3 | IC50 [8, 12]: < 35.5 µM
15 | – | – | – | – | – | – | – | C=CC(=O)NCc1cc(C(=O)OC)cc(O)c1O [Compound I-18] | 10.5 | 22.5 | 73 | –
16 | – | – | – | – | – | – | – | COc1cccc2c1C(=O)c1c(O)c3c(c(O)c1C2=O)C[C@@](O)(C(=O)CO)C[C@@H]3O[C@H]1C[C@H](N)[C@H](O)[C@H](C)O1 [doxorubicin, reference compound] | – | – | – | inhibition at 1 µM ([1]; doxorubicin 1 μM, read-out: Inhibition rate on A549): 88.8%; inhibition at 1 µM ([2]; doxorubicin 1 μM, read-out: Inhibition rate on HT-29): 95.3%; inhibition at 1 µM ([3]; doxorubicin 1 μM, read-out: Inhibition rate on hela): 44.3%; inhibition at 1 µM ([4]; doxorubicin 1 μM, read-out: Inhibition rate on K562): 40.8%; inhibition at 1 µM ([5]; MCF7, doxorubicin 1 μM, 72 hours, read-out: Inhibition rate on MCF-7): 69.1%; inhibition at 1 µM ([6]; HCT-116, doxorubicin 1 μM, 72 hours, read-out: Inhibition rate on HCT116): 60.9%; inhibition at 1 µM ([7]; doxorubicin 1 μM, read-out: Inhibition rate on HepG2): 78.1%
